In one assay the test system is CEM-SS cells. Kind of assay: CEM-SS MTT assay, cytotoxicity (Table I). It is filed as cell-based, human. For orientation: Formazan colour is commonly taken as a measure of viable cells.
A further assay deals with HIV-1. The note with it: for EC50 / Maximum Protection (%): CEM-SS MTT assay; for protecting cells against HIV infection: text summary of Table I.

Usually IC50 stands for the concentration that inhibits the measured activity by half. Higher therefore signals lower potency. For orientation: EC50 means the concentration that produces a half-maximal response. A higher EC50 goes with a need for much substance.

Like-named read-outs stand apart in the source and are kept apart here. A value given as a limit tells only on which side of the number the result lay.

For `CCCc1cc(=O)oc2c(C(=O)C(C)(C)C(C)O)c(O)c3c(c12)OC(C)(C)C=C3` (racemic) [(±)-14a, (±)-6,6-Dimethyl-10-(2,2-dimethyl-3-hydroxybutyro)-9-hydroxy-4-propyl-2H,6H-benzo[1,2-b:3,4-b′]dipyran-2-one], in the assay with CEM-SS cells, the midpoint of inhibition, the IC50, lay at 37 µM. That is a double-digit micromolar value.
Still for that read-out and setting: to `CCCc1cc(=O)oc2c(C(=O)C(C)C(C)(C)O)c(O)c3c(c12)OC(C)(C)C=C3` (racemic) [(±)-14b, (±)-6.6-Dimethyl-10-(2,3-dimethyl-3-hydroxybutyro)-9-hydroxy4-propyl-2H,6H-benzo[1,2-b:3,4-b′]dipyran-2-one] belongs 27.1 µM; to `CCCc1cc(=O)oc2c3c(c4c(c12)OC(C)(C)C=C4)OC(C)C(C)(C)C3O` (racemic) [(±)-16a, (±)-10,12-cis-10,11-Dihydro-12-hydroxy-6,6,10,11,11-pentamethyl-4propyl-2H, 6H, 12H-benzo [1,2-b:3,4-b′:5,6-b″]tripyran-2-one], 20.3 µM.
In the assay on CEM-SS cells, `CCCc1cc(=O)oc2c3c(c4c(c12)OC(C)(C)C=C4)OC(C)C(C)(C)C3O` (racemic) [(±)-16b, (±)-10,12-trans-10,11-dihydro-12-hydroxy-6,6,10,11,11-pentamethyl-4-propyl-2H,6H,12H-benzo [1,2-b:3,4-b′:5,6-b″]tripyran-2-one] returned an IC50 of 16.9 µM. Besides, in the assay with HIV-1, the EC50 came out at 2360 nM, the “Maximum Protection (%)” value was 78% and the “protecting cells against HIV infection” value is “highly efficacious”.
As for `CCCc1cc(=O)oc2c3c(c4c(c12)OC(C)(C)C=C4)OC(C)(C)C(C)C3O` (racemic) [(±)-16c, (±)-11,12-cis-10,11-Dihydro-12-hydroxy-6,6,10,10,11-pentamethyl-4-propyl-2H, 6H, 12H-benzo [1,2-b:3,4-b′:5,6-b″]tripyran-2-one], half-maximal inhibition in the assay on CEM-SS cells (IC50) required 21.3 µM.
In turn, `CCCc1cc(=O)oc2c3c(c4c(c12)OC(C)(C)C=C4)OC(C)(C)C(C)C3O` (racemic) [(±)-16d, (±)-11,12-trans-10,11-dihydro-12-hydroxy-6,6,10,10,11-pentamethyl-4-propyl-2H,6H,12H-benzo [1,2-b:3,4-b′:5,6-b″]tripyran-2-one] came in with an IC50 with CEM-SS cells of 21 µM. Moreover, in the assay on HIV-1, the midpoint of the response, the EC50, lay at 5660 nM; the “Maximum Protection (%)” value was found to be 88%; the “protecting cells against HIV infection” value is given as “highly efficacious”.
On the same counts, the results for `CCCc1cc(=O)oc2c3c(c4c(c12)OC(C)(C)C=C4)OC(CC)C(C)C3O` (racemic) [(±)-16e, (±)-10,11-trans-11,12-cis-10,11-Dihydro-10-ethyl-12-hydroxy-4-propyl-6,6,11-trimethyl-2H,6H,12H-benzo [1,2-b:3,4-b′:5,6-b″]tripyran-2-one] are 14 µM, 1670 nM, 88% and “highly efficacious”.
Regarding `CCCc1cc(=O)oc2c3c(c4c(c12)OC(C)(C)C=C4)OC(CC)C(C)C3O` (racemic) [(±)-16f, (±)-10,11-qrans-11,12-trans-10,11-dihydro-10-ethyl-12-hydroxy4-propyl-6,6,11-trimethyl-2H,6H,12H-benzo [1,2-b:3,4-b′:5,6-b″]tripyran-2-one], in the assay with CEM-SS cells, the IC50 came out at 17.7 µM. Besides, in the assay on HIV-1, the EC50 is 1970 nM, the “Maximum Protection (%)” value came out at 86% and the “protecting cells against HIV infection” value is recorded as “highly efficacious”.
In turn, `CCCc1cc(=O)oc2c3c(c4c(c12)OC(C)(C)C=C4)OC(CC)C(C)C3O` (racemic) [(±)-16g, (±)-10,11-cis-11,12-trans-10,11-Dihydro-10-ethyl-12-hydroxy-4-propyl-6,6,11-trimethyl-2H,6H,12H-benzo [1,2-b:3,4-b′:5,6-b″]tripyran-2-one] gave an IC50 in the assay with CEM-SS cells of 11.6 µM.
Same read-out and setting: to `CCCc1cc(=O)oc2c3c(c4c(c12)OC(C)(C)C=C4)OC(CC)C(C)C3O` (racemic) [(±)-16h, (±)-10,11,12-cis-10,11-dihydro10-ethyl-12-hydroxy4-propyl-6,6,11-trimethyl-2H,6H,12H-benzo [1,2-b:3,4-b′:5,6-b″]tripyran-2-one] belongs 20.9 µM; to `CCCc1cc(=O)oc2c3c(c4c(c12)OC(C)(C)C=C4)O[C@H](C)[C@@H](C)C3=NO` (racemic) [(±)-19a, (±)10,11-trans-10,11-Dihydro4-propyl-6,6,10,11-tetramethyl-2H, 6H, 12H-benzo [1,2-b:3,4-b′:5,6-b″]tripyran-2,12-dione-12-oxime], 15.8 µM.
Consider `CCCc1cc(=O)oc2c3c(c4c(c12)OC(C)(C)C=C4)OC(C)C(C)C3=NOC` (racemic) [(±)-19b, (±)-10,11-trans-10,11 -Dihydro4-propyl-6,6,10,11-tetramethyl-2H, 6H, 12H-benzo [1,2-b:3,4-b′:5,6-b ″]tripyran-2,12-dione-12-methoxime], for which the IC50 with CEM-SS cells was above 100 µM. Moreover, the EC50 in the assay with HIV-1 is above 100000 nM.
For the compound `CCCc1cc(=O)oc2c(C(=O)[C@H](C)[C@@H](C)OC(C)=O)c(O)c3c(c12)OC(C)(C)C=C3` [(+)-10, 6,6Dimethyl-9-hydroxy-10-[2(R)-methyl-3(R)-acetoxybutyro]-4-propyl-2H,6H-benzo-[1,2-b:3,4-b′]dipyran-2-one], the IC50 in the assay with CEM-SS cells is 9.27 µM. Also, in the assay on HIV-1, a half-maximal response (EC50) required 890 nM, the “Maximum Protection (%)” value is given as 88% and the “protecting cells against HIV infection” value is “highly efficacious”.
The compound `CCCc1cc(=O)oc2c3c(c4c(c12)OC(C)(C)C=C4)O[C@@H](C)C(C)=C3` [Compound 22, 10(S)4-propyl-6,6,10,11-tetramethyl-2H,6H,10H-benzo [1,2-b:3,4-b′:5,6-b″]tripyran-2-one] displayed an IC50 in the assay with CEM-SS cells (Homo sapiens) of 24.7 µM.
